This data set deals with UBE3A-ATS. Nature of the data set: mouse, dose not given. The following applies: ASO.

HELM strings list units from the 5' end as sugar, base in round brackets, then linkage (d deoxyribose, r ribose, m 2'-O-methyl, p phosphodiester). Strings are as the collection lists them; they lack the last nucleoside at the 3' end of the tested compound. [moe] = 2'-O-(2-methoxyethyl) (MOE); [sp] = phosphorothioate linkage; [m5C] = 5-methylcytosine

Drawing on the OligoGym collection, this text covers 3 h FOB score for 26 substances.

“RNA1{[moe](A)[sp].[moe](A)p.[moe](A)p.[moe]([m5C])p.[moe](G)p.[moe]([m5C])p.d(A)[sp].d(A)[sp].d(T)[sp].d(G)[sp].d(T)[sp].d(A)[sp].d(T)[sp].d([m5C])[sp].d(A)[sp].d(G)[sp].[moe](G)p.[moe]([m5C])[sp].[moe](A)}$$$$ (last 3' nucleoside missing)” yielded a 3 h FOB score of 3 score 0-7.
With “RNA1{[moe](A)[sp].[moe]([m5C])p.[moe](T)p.[moe](G)p.[moe]([m5C])p.[moe](T)p.d(T)[sp].d([m5C])[sp].d(A)[sp].d([m5C])[sp].d([m5C])[sp].d(A)[sp].d(T)[sp].d(T)[sp].d(T)[sp].d(T)[sp].[moe](G)p.[moe](A)[sp].[moe]([m5C])}$$$$ (last 3' nucleoside missing)” the figure was 1 score 0-7; with “RNA1{[moe](G)[sp].[moe](A)p.[moe](G)p.[moe](A)p.[moe](A)p.d([m5C])[sp].d([m5C])[sp].d([m5C])[sp].d(A)[sp].d([m5C])[sp].d(T)[sp].d(T)[sp].d(G)[sp].d(A)[sp].d(T)[sp].[moe]([m5C])p.[moe](T)p.[moe](A)[sp].[moe](T)}$$$$ (last 3' nucleoside missing)”, 3 score 0-7.
With “RNA1{[moe]([m5C])[sp].[moe](G)p.[moe](G)p.[moe](A)p.[moe]([m5C])p.d(A)[sp].d(G)[sp].d(T)[sp].d(G)[sp].d(T)[sp].d(T)[sp].d(G)[sp].d([m5C])[sp].d(T)[sp].d(G)[sp].[moe](T)p.[moe](T)p.[moe](A)[sp].[moe](G)}$$$$ (last 3' nucleoside missing)” the figure was 6 score 0-7; with “RNA1{[moe](A)[sp].[moe](G)p.[moe](A)p.[moe](G)p.[moe](G)p.d([m5C])[sp].d([m5C])[sp].d([m5C])[sp].d(T)[sp].d([m5C])[sp].d(T)[sp].d(T)[sp].d(G)[sp].d(T)[sp].d(T)[sp].[moe](T)p.[moe]([m5C])p.[moe](A)[sp].[moe](A)}$$$$ (last 3' nucleoside missing)”, 1.8 score 0-7.
With “RNA1{[moe](A)[sp].[moe](G)p.[moe]([m5C])p.[moe]([m5C])p.[moe](A)p.[moe](G)p.d(G)[sp].d(T)[sp].d(G)[sp].d(T)[sp].d([m5C])[sp].d(T)[sp].d(T)[sp].d(A)[sp].d(T)[sp].d(A)[sp].[moe](T)p.[moe]([m5C])[sp].[moe](T)}$$$$ (last 3' nucleoside missing)”, the 3 h FOB score turned out to be 0 score 0-7.
The value for “RNA1{[moe](T)[sp].[moe]([m5C])p.[moe](T)p.[moe]([m5C])p.[moe]([m5C])p.d(A)[sp].d(G)[sp].d(T)[sp].d(T)[sp].d(T)[sp].d(T)[sp].d([m5C])[sp].d(G)[sp].d([m5C])[sp].d([m5C])[sp].[moe]([m5C])p.[moe](G)p.[moe](T)[sp].[moe](T)}$$$$ (last 3' nucleoside missing)” was 4.7 score 0-7; that for “RNA1{[moe](A)[sp].[moe](T)p.[moe]([m5C])p.[moe](A)p.[moe](G)p.d(G)[sp].d(G)[sp].d([m5C])[sp].d(A)[sp].d([m5C])[sp].d(A)[sp].d(T)[sp].d(G)[sp].d(G)[sp].d(A)[sp].[moe](G)p.[moe](T)p.[moe](T)[sp].[moe](G)}$$$$ (last 3' nucleoside missing)” was 6.8 score 0-7; that for “RNA1{[moe]([m5C])[sp].[moe](T)p.[moe](G)p.[moe]([m5C])p.[moe](T)p.d(T)[sp].d([m5C])[sp].d(A)[sp].d([m5C])[sp].d([m5C])[sp].d(A)[sp].d(T)[sp].d(T)[sp].d(T)[sp].d(T)[sp].[moe](G)p.[moe](A)p.[moe]([m5C])[sp].[moe]([m5C])}$$$$ (last 3' nucleoside missing)” was 1.3 score 0-7.
The value for “RNA1{[moe](A)[sp].[moe]([m5C])p.[moe]([m5C])p.[moe]([m5C])p.[moe]([m5C])p.d(T)[sp].d(A)[sp].d(G)[sp].d(G)[sp].d(A)[sp].d(A)[sp].d(T)[sp].d(A)[sp].d(A)[sp].d(T)[sp].[moe](G)p.[moe](T)p.[moe](T)[sp].[moe](G)}$$$$ (last 3' nucleoside missing)” was 2 score 0-7; that for “RNA1{[moe](T)[sp].[moe](T)p.[moe](T)p.[moe](A)p.[moe](T)p.d(A)[sp].d(G)[sp].d(G)[sp].d(G)[sp].d(T)[sp].d(G)[sp].d(G)[sp].d(T)[sp].d(T)[sp].d(G)[sp].[moe](G)p.[moe](T)p.[moe](T)[sp].[moe]([m5C])}$$$$ (last 3' nucleoside missing)” was 6 score 0-7.
With “RNA1{[moe](T)[sp].[moe]([m5C])p.[moe](A)p.[moe]([m5C])p.[moe](T)p.d(G)[sp].d(A)[sp].d(G)[sp].d(T)[sp].d(T)[sp].d(T)[sp].d(T)[sp].d(T)[sp].d(G)[sp].d(T)[sp].[moe](A)p.[moe](G)p.[moe](T)[sp].[moe](T)}$$$$ (last 3' nucleoside missing)” the figure was 3.7 score 0-7; with “RNA1{[moe](A)[sp].[moe](A)p.[moe](G)p.[moe](T)p.[moe](G)p.d(G)[sp].d(A)[sp].d(T)[sp].d([m5C])[sp].d(T)[sp].d([m5C])[sp].d(T)[sp].d(T)[sp].d(G)[sp].d(G)[sp].[moe](G)p.[moe]([m5C])p.[moe](A)[sp].[moe](G)}$$$$ (last 3' nucleoside missing)”, 4.8 score 0-7.
The substance “RNA1{[moe](G)[sp].[moe](G)p.[moe](T)p.[moe]([m5C])p.[moe](A)p.[moe](T)p.d([m5C])[sp].d(T)[sp].d([m5C])[sp].d(G)[sp].d(G)[sp].d(G)[sp].d(T)[sp].d(A)[sp].d(T)[sp].d(A)[sp].[moe](T)p.[moe](A)[sp].[moe](A)}$$$$ (last 3' nucleoside missing)” returned a 3 h FOB score of 6 score 0-7.
The value for “RNA1{[moe](T)[sp].[moe](A)p.[moe](G)p.[moe](A)p.[moe](T)p.d(T)[sp].d(G)[sp].d(G)[sp].d(G)[sp].d([m5C])[sp].d(T)[sp].d(T)[sp].d(T)[sp].d(A)[sp].d(G)[sp].[moe](A)p.[moe](G)p.[moe](G)[sp].[moe](T)}$$$$ (last 3' nucleoside missing)” was 5 score 0-7.
With “RNA1{[moe](G)[sp].[moe](G)p.[moe](A)p.[moe](A)p.[moe](G)p.d(G)[sp].d(A)[sp].d(A)[sp].d(A)[sp].d([m5C])[sp].d(A)[sp].d([m5C])[sp].d(A)[sp].d([m5C])[sp].d(A)[sp].[moe](T)p.[moe](A)p.[moe](A)[sp].[moe](T)}$$$$ (last 3' nucleoside missing)” the figure was 0.5 score 0-7.
“RNA1{[moe](A)[sp].[moe]([m5C])p.[moe](T)p.[moe](G)p.[moe](G)p.d([m5C])[sp].d(A)[sp].d(T)[sp].d(A)[sp].d(T)[sp].d(T)[sp].d([m5C])[sp].d([m5C])[sp].d(G)[sp].d(A)[sp].[moe](T)p.[moe](T)p.[moe](A)[sp].[moe](T)}$$$$ (last 3' nucleoside missing)”: the 3 h FOB score worked out at 3 score 0-7.
With “RNA1{[moe](A)[sp].[moe](G)p.[moe](G)p.[moe](T)p.[moe](G)p.d(T)[sp].d([m5C])[sp].d(T)[sp].d(T)[sp].d(A)[sp].d(T)[sp].d(A)[sp].d(T)[sp].d([m5C])[sp].d(T)[sp].[moe](A)p.[moe](T)p.[moe](G)[sp].[moe](A)}$$$$ (last 3' nucleoside missing)” the figure was 0 score 0-7; with “RNA1{[moe]([m5C])[sp].[moe](A)p.[moe](G)p.[moe](T)p.[moe](T)p.d(A)[sp].d(G)[sp].d(G)[sp].d(T)[sp].d(T)[sp].d(A)[sp].d(G)[sp].d(T)[sp].d(G)[sp].d([m5C])[sp].[moe](A)p.[moe]([m5C])p.[moe](A)[sp].[moe](G)}$$$$ (last 3' nucleoside missing)”, 6 score 0-7; with “RNA1{[moe]([m5C])[sp].[moe](T)p.[moe](A)p.[moe](A)p.[moe]([m5C])p.d(T)[sp].d(T)[sp].d(T)[sp].d(A)[sp].d(T)[sp].d(A)[sp].d(G)[sp].d(T)[sp].d(G)[sp].d(T)[sp].[moe](G)p.[moe](G)p.[moe](A)[sp].[moe](T)}$$$$ (last 3' nucleoside missing)”, 5 score 0-7.
For the substance “RNA1{[moe]([m5C])[sp].[moe](G)p.[moe](T)p.[moe](A)p.[moe](T)p.d(T)[sp].d(G)[sp].d(G)[sp].d(A)[sp].d([m5C])[sp].d([m5C])[sp].d(T)[sp].d(T)[sp].d(T)[sp].d([m5C])[sp].[moe](A)p.[moe](A)p.[moe](T)[sp].[moe](G)}$$$$ (last 3' nucleoside missing)”, the 3 h FOB score was determined as 3.5 score 0-7.
With “RNA1{[moe](G)[sp].[moe](T)p.[moe](T)p.[moe]([m5C])p.[moe](T)p.d(G)[sp].d(G)[sp].d(A)[sp].d(A)[sp].d(T)[sp].d([m5C])[sp].d(T)[sp].d(T)[sp].d(G)[sp].d(T)[sp].[moe](A)p.[moe](G)p.[moe](A)[sp].[moe](G)}$$$$ (last 3' nucleoside missing)” the figure was 4 score 0-7; with “RNA1{[moe](G)[sp].[moe]([m5C])p.[moe](A)p.[moe](T)p.[moe](T)p.d(G)[sp].d(G)[sp].d([m5C])[sp].d(T)[sp].d(T)[sp].d([m5C])[sp].d(A)[sp].d(T)[sp].d(A)[sp].d(T)[sp].[moe](T)p.[moe](T)p.[moe]([m5C])[sp].[moe](T)}$$$$ (last 3' nucleoside missing)”, 1 score 0-7.
The value for “RNA1{[moe](G)[sp].[moe]([m5C])p.[moe](A)p.[moe]([m5C])p.[moe](T)p.d(T)[sp].d(A)[sp].d(A)[sp].d(A)[sp].d(T)[sp].d(T)[sp].d(T)[sp].d(A)[sp].d(T)[sp].d([m5C])[sp].[moe](A)p.[moe](G)p.[moe](T)[sp].[moe](T)}$$$$ (last 3' nucleoside missing)” was 3 score 0-7.
In turn, “RNA1{[moe](G)[sp].[moe](G)p.[moe](A)p.[moe](T)p.[moe](T)p.d([m5C])[sp].d(A)[sp].d(A)[sp].d(T)[sp].d(A)[sp].d(G)[sp].d(T)[sp].d(G)[sp].d(T)[sp].d(A)[sp].[moe](G)p.[moe](G)p.[moe](T)[sp].[moe](G)}$$$$ (last 3' nucleoside missing)” gave a 3 h FOB score of 7 score 0-7.
With “RNA1{[moe](T)[sp].[moe]([m5C])p.[moe](T)p.[moe](G)p.[moe]([m5C])p.d(T)[sp].d([m5C])[sp].d(A)[sp].d(G)[sp].d(T)[sp].d(T)[sp].d(A)[sp].d(G)[sp].d(G)[sp].d(T)[sp].[moe](T)p.[moe](A)p.[moe](G)[sp].[moe](T)}$$$$ (last 3' nucleoside missing)” the figure was 7 score 0-7.
